Laboratory results reported in US5573999A, “β-substituted cinnamic acid derivative” (BASF Aktiengesellschaft, priority 1991, dated 1996).

Assays:
[1] = test system: mitochondrial respiration; assay: Inhibition of mitochondrial respiration (rate of reduction of cytochrome c in isolated mitochondria), yeast; format: biochemical, Saccharomyces cerevisiae; conditions: DMSO control
Description: In order to determine the effect of the compounds according to the invention on mitochondrial respiration it is first necessary to isolate the mitochondria from the organisms being investigated. For this, in the case of the yeast Saccharomyces cerevisiae, the cells in a 30 to 40% strength suspension of the yeast in an aqueous solution of 0.6M mannitol+0.01M tris[hydroxymethyl]-aminomethane+0.002M disodium ethylenediaminetetraacetate (pH 6.8) are disrupted in a glass bead mill, and the extract is fractionated by differential centrifugation at 1000× g and 12000× g. The mitochondria are in the pellet from the 12000× g centrifugation.
(§1) Used as control is a mixture with the equivalent amount of pure DMSO. The inhibition at the concentration of agent in each case is then calculated as follows [formula] where ΔE is the change in extinction, at is the change in time, [formula] is the reaction rate for the control and [formula] is the reaction rate for the sample x.
(§2) The inhibition was determined in each case at a test substance concentration of 1.8/10^-5mol/l .

[2] = test system: mitochondrial respiration; assay: Inhibition of mitochondrial respiration (rate of reduction of cytochrome c in isolated mitochondria), house fly; format: biochemical, Musca domestica; conditions: DMSO control
Description: (§3) It is also possible similarly to isolate mitochondria from other organisms, e.g. from the phytopathogenic fungus Drechslera sorokiniana (synonym: Helminthosporium sativum), from the dermatophyte Trichophyton mentagrophytes, which is a human pathogen, and, for example, from the house fly (Musca domestica) as insect or from the spider mite Tetranychus urticae.
as §1, §2

[3] = test system: wheat mildew (Erysiphe graminis var. tritici); assay: Activity against wheat mildew on wheat seedlings; format: in vivo; conditions: aqueous dispersion containing 250 ppm active ingredient, assessed after 7 days
Description: Leaves of pot-grown wheat seedlings of the Fruhgold variety were sprayed with an aqueous liquor which contained 80% of active ingredient and 20% of emulsifier in dry matter and, 24 hours after the sprayed-on layer had dried, were dusted with spores of wheat mildew (Erysiphe graminis var. tritici). The test plants were then placed in a greenhouse at from 20° to 22° C. and from 75 to 80% relative humidity. The extent of mildew spread was assessed after 7 days.

Plasmopara viticola = assay: Activity against Plasmopara viticola on potted vines; format: in vivo; conditions: aqueous dispersion containing 250 ppm active ingredient, infected 8 days after spraying
Description: Leaves of potted vines of the Muller Thurgau variety were sprayed with an aqueous liquor which contained 80% of active ingredient and 20% of emulsifier in dry matter. To assess the duration of action of the active ingredient, after the sprayed-on layer had dried the plants were placed in a greenhouse for 8 days. The leaves were then infected with a suspension of Plasmopara viticola zoospores. The vines were then placed first in a chamber saturated with water vapor at 24° C. for 48 hours and then in a greenhouse at from 20° to 30° C. for 5 days. After this, to speed up sporangiophore discharge, the plants were again placed in the humidity chamber for 16 hours. The extent of fungus attack was then assessed on the undersides of the leaves.

[4] = test system: mitochondrial respiration; assay: Inhibition of mitochondrial respiration (rate of reduction of cytochrome c in isolated mitochondria), phytopathogenic fungus; format: biochemical, Drechslera sorokiniana; conditions: DMSO control
Description: as §3, §1, §2

Structure (SMILES) | % inhibition of respiration at 1.8 × 10^-5 mol/l test substance, Saccharomyces cerevisiae [1] | % inhibition of respiration at 1.8 × 10^-5 mol/l test substance, Musca domestica [2] | fungal attack, wheat mildew [3] | fungal attack, Plasmopara viticola (Plasmopara viticola) | % inhibition of respiration at 1.8 × 10^-5 mol/l test substance, Drechslera sorokiniana [4]
COC(=O)/C=C(/OC)c1ccccc1COc1ccccc1C [Compound 1a.2] | 88% | 21% | 15% |  | 
COC(=O)/C=C(/OC)c1ccccc1COc1ccc(Oc2ccccc2)cc1 [Compound 1a.31] |  |  |  | 10% | 
COC(=O)/C=C(/OC)c1ccccc1COc1ccc(C(C)=NOCC(C)C)cc1C [Compound 1a.60] | 97% | 93% | 15% |  | 99%
CON=C(C)c1cc(C)c(OCc2ccccc2/C(=C\C(=O)OC)OC)cc1C [Compound 1a.61] | 98% | 97% | 15% | 10% | 
CON=Cc1cccc(OCc2ccccc2/C(=C\C(=O)OC)OC)c1 [Compound 1a.62] | 87% | 74% |  | 10% | 
C=CCON=Cc1cccc(OCc2ccccc2/C(=C\C(=O)OC)OC)c1 [Compound 1a.63] | 93% | 85% | 15% | 10% | 
COC(=O)/C=C(/OC)c1ccccc1COc1cccc(C=NOCc2ccccc2Cl)c1 [Compound 1a.64] | 94% | 93% |  |  | 98%
CC/C(=C/C(=O)OC)c1ccccc1COc1ccccc1C [Compound 1a.110] |  | 12% |  | 10% | 
COC(=O)/C=C(/OC)c1ccccc1COc1nc(-c2ccccc2)sc1C [Compound 1a.182] | 98% |  |  | 10% | 
COC(=O)/C=C(/OC)c1ccccc1/C=C/c1ccccc1[N+](=O)[O-] [Compound 1a.238] | 99% | 87% |  | 10% | 74%
COC(=O)/C=C(/OC)c1ccccc1/C=C\c1ccccc1[N+](=O)[O-] [Compound 1a.239] | 44% | 16% | 15% |  | 
COC(=O)/C=C(/OC)c1ccccc1/C=C/c1ccccc1C(F)(F)F [Compound 1a.243] | 99% | 89% |  |  | 94%
COC(=O)/C=C(/OC)c1ccccc1/C=C/c1cccc(C(F)(F)F)c1 [Compound 1a.245] | 98% | 91% | 15% |  | 
COC(=O)/C=C(/OC)c1ccccc1/C=C\c1cccc(C(F)(F)F)c1 [Compound 1a.246] | 84% | 81% | 15% |  | 
COC(=O)/C=C(/OC)c1ccccc1/C=C/c1ccc(-c2ccccc2)cc1 [Compound 1a.268, methyl 2-[2-(4-phenylphenyl)-(E)-ethenyl]-(E)-β-methoxycinnamate] | 95% | 95% |  |  | 97%
COC(=O)/C=C(/OC)c1ccccc1/C=C\c1ccc(-c2ccccc2)cc1 [Compound 1a.269, methyl 2-[2-(4-phenylphenyl)-(Z)-ethenyl]-(E)-β-methoxycinnamate] | 96% | 76% |  |  | 81%
COC(=O)/C=C(/OC)c1ccccc1/C=C/c1ccc(Oc2ccccc2)cc1 [Compound 1a.273] | 95% | 95% |  |  | 96%

Structure (SMILES) | % inhibition of respiration at 1.8 × 10^-5 mol/l test substance, Saccharomyces cerevisiae [1] | % inhibition of respiration at 1.8 × 10^-5 mol/l test substance, Musca domestica [2] | fungal attack, wheat mildew [3] | fungal attack, Plasmopara viticola (Plasmopara viticola) | % inhibition of respiration at 1.8 × 10^-5 mol/l test substance, Drechslera sorokiniana [4]
COC(=O)/C=C(/OC)c1ccccc1/C=C/c1ccco1 [Compound 1a.290] | 98% | 86% | 15% |  | 
COC(=O)/C=C(/OC)c1ccccc1/C=C/c1ccoc1 [Compound 1a.292] | 87% | 61% | 15% |  | 79%
COC(=O)/C=C(/OC)c1ccccc1/C=C/c1cccs1 [Compound 1a.294] | 98% | 95% | 15% |  | 
COC(=O)/C=C(/OC)c1ccccc1/C=C/c1cc(-c2ccc(Cl)cc2)no1 [Compound 1a.300] | 98% | 93% |  |  | 
COC(=O)/C=C(/OC)c1ccccc1/C=C\c1coc(-c2ccc(Cl)cc2)n1 [Compound 1a.303] | 98% | 86% |  |  | 
COC(=O)/C=C(/OC)c1ccccc1/C=C/c1ccn(-c2ccc(Cl)cc2)c1 [Compound 1a.304] | 97% | 96% | 15% |  | 
COC(=O)/C=C(/OC)c1ccccc1/C=C\c1ccn(-c2ccc(Cl)cc2)c1 [Compound 1a.305] | 30% | 39% |  |  | 
COC(=O)/C=C(/OC)c1ccccc1/C=C/c1csc(-c2ccccc2)n1 [Compound 1a.306] | 98% | 96% |  |  | 
COC(=O)/C=C(/OC)c1ccccc1/C=C\c1csc(-c2ccccc2)n1 [Compound 1a.307] | 58% | 71% |  |  | 
COC(=O)/C=C(/OC)c1ccccc1/C=C/c1nc(-c2ccc(F)cc2)no1 [Compound 1a.310] | 99% |  |  | 10% | 
COC(=O)/C=C(/OC)c1ccccc1/C=C/c1csc(-c2ccc(C)cc2)n1 [Compound 1a.312] | 99% |  |  | 10% | 
COC(=O)/C=C(/OC)c1ccccc1/C=C/c1cnn(-c2ccc(OC)cc2)c1 [Compound 1a.318] | 98% |  |  | 10% | 
COC(=O)/C=C(/OC)c1ccccc1/C=C\c1cnn(-c2ccc(Cl)cc2)c1 [Compound 1a.321] | 19% |  |  | 10% | 
COC(=O)/C=C(/OC)c1ccccc1/C=C\c1noc(-c2ccc(Cl)cc2)c1C [Compound 1a.323] | 99% |  |  | 10% | 
COC(=O)/C=C(/OC)c1ccccc1/C=C/c1csc(-c2ccc(F)cc2)n1 [Compound 1a.394, methyl 2-{2-[2-(4-fluorophenyl)-4-thiazolyl]-(E)-ethenyl}-(E)-β-methoxycinnamate] | 96% | 99% |  | 10% | 
COC(=O)/C=C(/OC)c1ccccc1/C=C/c1ccc(C(F)(F)F)cc1 [Compound 1a.519] | 97% | 89% |  |  | 
